Laboratory results published in PubChem BioAssay AID1918933 (Molecular Pharmacology Branch, DTP, NCI, 2023).

Tested on: 186277-243-T-J2-PDC complex spheroid viability
Experiment: Anticancer human tumor 186277-243-T-J2-PDC patient-derived colon adenocarcinoma cell line growth inhibition
Conditions: for IC50: curve of first compound; for viability, T/C: stronger effect = lower value
Procedure, shortened: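 Drug combinations with the LSD1 inhibitor iadademstat tested on tumor cells co-cultured as spheroids with endothelial cells and mesenchymal stem cells. Concentrations descended in half-log increments from clinical Cmax or 10 microM.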
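Also: 7 day exposure to compounds.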
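For viability, T/C in this document: 100% = DMSO vehicle control viability.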

`COc1ccc([C@@H](O)c2cc(-c3ncnc4cc(N5CCOCC5)ccc34)c(F)cc2Cl)nn1` + NC1CCC(NC2CC2c2ccccc2)CC1 showed an IC50 (second compound 0.1 µM) of 4320 nM, an IC50 (second compound 0.316 µM) of 4430 nM and an IC50 (second compound 1 µM) of 4480 nM. The IC50 (second compound 3.16 µM) was 4300 nM, the IC50 (second compound 10 µM) was 3860 nM and the viability, T/C (second compound 0.1 µM, first compound 0.0316 µM) was 112%. The viability, T/C (second compound 0.1 µM, first compound 0.1 µM) was 119%, the viability, T/C (second compound 0.1 µM, first compound 0.316 µM) was 112% and the viability, T/C (second compound 0.1 µM, first compound 1 µM) was 93.2%. It also gave a viability, T/C (second compound 0.1 µM, first compound 3.16 µM) of 67.3%, a viability, T/C (second compound 0.1 µM, first compound 10 µM) of 7% and a viability, T/C (second compound 0.316 µM, first compound 0.0316 µM) of 128%. The viability, T/C (second compound 0.316 µM, first compound 0.1 µM) was 143%, the viability, T/C (second compound 0.316 µM, first compound 0.316 µM) was 105% and the viability, T/C (second compound 0.316 µM, first compound 1 µM) was 100%. It also gave a viability, T/C (second compound 0.316 µM, first compound 3.16 µM) of 72.7%, a viability, T/C (second compound 0.316 µM, first compound 10 µM) of 5.45% and a viability, T/C (second compound 1 µM, first compound 0.0316 µM) of 116%. The viability, T/C (second compound 1 µM, first compound 0.1 µM) was 118%, the viability, T/C (second compound 1 µM, first compound 0.316 µM) was 108% and the viability, T/C (second compound 1 µM, first compound 1 µM) was 109%. It also gave a viability, T/C (second compound 1 µM, first compound 3.16 µM) of 68.7%, a viability, T/C (second compound 1 µM, first compound 10 µM) of 6.38% and a viability, T/C (second compound 3.16 µM, first compound 0.0316 µM) of 122%. It also gave a viability, T/C (second compound 3.16 µM, first compound 0.1 µM) of 126%, a viability, T/C (second compound 3.16 µM, first compound 0.316 µM) of 122% and a viability, T/C (second compound 3.16 µM, first compound 1 µM) of 97.9%. It also gave a viability, T/C (second compound 3.16 µM, first compound 3.16 µM) of 67.5%, a viability, T/C (second compound 3.16 µM, first compound 10 µM) of 5.71% and a viability, T/C (second compound 10 µM, first compound 0.0316 µM) of 109%. It also gave a viability, T/C (second compound 10 µM, first compound 0.1 µM) of 118%, a viability, T/C (second compound 10 µM, first compound 0.316 µM) of 104% and a viability, T/C (second compound 10 µM, first compound 1 µM) of 101%. The viability, T/C (second compound 10 µM, first compound 3.16 µM) was 59% and the viability, T/C (second compound 10 µM, first compound 10 µM) was 5.79%.
With `O=C(C=Cc1cccc(S(=O)(=O)Nc2ccccc2)c1)NO` + NC1CC1c1ccc(-c2cccc(O)c2)cc1 the IC50 (second compound 0.1 µM) was 240 nM, the IC50 (second compound 0.316 µM) was 237 nM and the IC50 (second compound 1 µM) was 260 nM. It also gave an IC50 (second compound 3.16 µM) of 268 nM, an IC50 (second compound 10 µM) of 238 nM and a viability, T/C (second compound 0.1 µM, first compound 0.00949 µM) of 104%. The viability, T/C (second compound 0.1 µM, first compound 0.03 µM) was 103%, the viability, T/C (second compound 0.1 µM, first compound 0.0949 µM) was 94% and the viability, T/C (second compound 0.1 µM, first compound 0.3 µM) was 23.5%. The viability, T/C (second compound 0.1 µM, first compound 0.949 µM) was 3.89%, the viability, T/C (second compound 0.1 µM, first compound 3 µM) was 91.1% and the viability, T/C (second compound 0.316 µM, first compound 0.00949 µM) was 106%. It also gave a viability, T/C (second compound 0.316 µM, first compound 0.03 µM) of 113%, a viability, T/C (second compound 0.316 µM, first compound 0.0949 µM) of 90.8% and a viability, T/C (second compound 0.316 µM, first compound 0.3 µM) of 25.9%. The viability, T/C (second compound 0.316 µM, first compound 0.949 µM) was 3.14%, the viability, T/C (second compound 0.316 µM, first compound 3 µM) was 89.5% and the viability, T/C (second compound 1 µM, first compound 0.00949 µM) was 116%. It also gave a viability, T/C (second compound 1 µM, first compound 0.03 µM) of 101%, a viability, T/C (second compound 1 µM, first compound 0.0949 µM) of 109% and a viability, T/C (second compound 1 µM, first compound 0.3 µM) of 23.3%. For the same molecule, the viability, T/C (second compound 1 µM, first compound 0.949 µM) was 3.06%, the viability, T/C (second compound 1 µM, first compound 3 µM) was 98.7% and the viability, T/C (second compound 3.16 µM, first compound 0.00949 µM) was 118%. It also gave a viability, T/C (second compound 3.16 µM, first compound 0.03 µM) of 106%, a viability, T/C (second compound 3.16 µM, first compound 0.0949 µM) of 111% and a viability, T/C (second compound 3.16 µM, first compound 0.3 µM) of 26%. It also gave a viability, T/C (second compound 3.16 µM, first compound 0.949 µM) of 3.1%, a viability, T/C (second compound 3.16 µM, first compound 3 µM) of 101% and a viability, T/C (second compound 10 µM, first compound 0.00949 µM) of 99.3%. It also gave a viability, T/C (second compound 10 µM, first compound 0.03 µM) of 96.8%, a viability, T/C (second compound 10 µM, first compound 0.0949 µM) of 87.5% and a viability, T/C (second compound 10 µM, first compound 0.3 µM) of 21.8%. For the same molecule, the viability, T/C (second compound 10 µM, first compound 0.949 µM) was 1.11% and the viability, T/C (second compound 10 µM, first compound 3 µM) was 99%.
